The nature of data set [1]: Population pharmacokinetic analysis. The class given is in vivo, HIV-infected Thai patients.
The conditions of data set [2]: cited from earlier work.
Where [3] appears, read: indinavir model, bootstrap median.
The mark [4] stands for this setting: indinavir model, final model estimate.

The text below walks through data of PMC3058116 (Therapeutic drug monitoring, 2011).

Some results are limits rather than exact numbers.

By CL/F is commonly meant the apparent clearance, not corrected for the fraction that reaches the circulation. As for `CC(C)c1nc(CN(C)C(=O)N[C@H](C(=O)N[C@@H](Cc2ccccc2)C[C@H](O)[C@H](Cc2ccccc2)NC(=O)OCc2cncs2)C(C)C)cs1` [RTV, ritonavir], in data set [1] (both, human, in vivo), the “Residual variability σ (Proportional)” value came out at 0.36, the “interindividual variability of CL/F” value is reported as 48%, the “interindividual variability of Vd/F” value is 45% and the “θIDVDOSE-600mg (factor on ritonavir CL/F)” value is recorded as 0.78. The “θSEX-Female (factor on ritonavir CL/F)” value in data set [1] (both, human, in vivo) is recorded as 0.77. Besides, the CL/F in data set [1] (human, in vivo) came out at 10.1 L/h. Further, the CL/F in data set [1] (human, in vivo, 100 mg) was found to be 10.1 L/h.

On to `CC(C)(C)NC(=O)[C@@H]1CN(Cc2cccnc2)CCN1C[C@@H](O)C[C@@H](Cc1ccccc1)C(=O)N[C@H]1c2ccccc2C[C@H]1O` [IDV, Indinavir], for which, in data set [1] (setting [3]), the “Inter-individual variability IIV (CL/F)” value is 0.29; the “Inter-individual variability IIV (Ktr)” value came to 0.352; the “Ktr (= Ka within a transit model)” value is 2.37 h⁻¹; the “Residual variability, proportional σ (IDV 400 mg)” value worked out at 0.42. Further, the “Residual variability, proportional σ (IDV 600 mg)” value in data set [1] (setting [3]) came to 0.29. In addition, in data set [1] (setting [4]), the “Inter-individual variability IIV (CL/F)” value was 0.30; the “Inter-individual variability IIV (Ktr)” value is given as 0.38; the “Ktr (= Ka within a transit model)” value is 2.32 h⁻¹; the “Residual variability, proportional σ (IDV 400 mg)” value was 0.42. Also, the “Residual variability, proportional σ (IDV 600 mg)” value in data set [1] (setting [4]) is recorded as 0.29. Besides, the “Inter-individual variability IIV (Vd/F)” value in data set [1] (indinavir model, final model, ω^2(V/F) = θpV/F × ω^2(CL/F)) worked out at 0.23. For the same molecule, the “interindividual variability of CL/F” value in data set [1] (indinavir, final population estimate) is 30%. For the same molecule, in data set [2] (Thai patients receiving IDV/r 800/100 mg twice daily), the “indinavir AUC associated with an increased risk of developing nephrotoxicity” value is > 60000 µg·h/mL. The “indinavir CL/F higher in male patients compared to female patients” value in data set [2] (after adjusting for concomitant ritonavir use) was 30%. Further, the “indinavir bioavailability higher in female patients than in males” value in data set [2] (analysis including only nine women) is given as 48%.
